In patent US20050256040A1, “Artificially designed pore-forming proteins with anti-tumor effects” (Buck Institute, priority 2004, published 2005):
“Also recorded” adds a separate entry of the source. Like-named read-outs stand apart in the source and are kept apart here.

Key:
KS1767 cells [1] = experiment: Matrigel / polymeric fibronectin assay of cell viability; type: cell-based, human; conditions: for effect on KS1767 cell layer: regardless of the presence of matrigel
Description: To determine the mechanisms responsible for selective anti-tumor activity of SGP in vivo, a matrigel assay (to mimic extracellular matrix) was developed. Cell viability was determined by morphology (see Ellerby, et al. (1999) supra.; and Ellerby, et al. (1997) supra.). KS1767 cells were incubated with SGP at 1 mM in the presence or absence of matrigel or polymeric fibronectin (sFN). The fibronectin polymer was produced as previously described (see Pasqualini, et al. (1996) Nature Med. 2, 1197-1203). Briefly, cell culture medium was aspirated from adherent cells. Cells were then coated with matrigel (gently pipetted on each well to completely coat the entire cell layer), or the fibronectin polymer, and incubated at 37° C. for 10 min. SGP was added and the cells were viewed on an inverted microscope (Nikon TE 300). KS1767 cells were also exposed to doxorubicin (20 μg/well) or SGP in the presence or absense of matrigel for 24 h. Cell viability (%) was evaluated after no treatment (medium or matrigel alone), incubation with SGP or doxorubicin. Cell death was evaluated morphologically (see Ellerby, et al. (1999) supra.; and Ellerby, et al. (1997) supra.), and cell viability was compared relative to untreated controls (no matrigel) or absence of SGP.

KS1767 cells [2] = type: cell-based; conditions: for CC50: KS 1767 cells, read-out: LC50 at 30 min; for toxicity to mammalian cultured cells compared with SGP: Table I cell types
Description: All cell lines were obtained commercially. The Kaposi's sarcoma-derived cell line KS1767 and the breast carcinoma cell line MDA-MB-435 have been described previously (see, for example, Herndier, et al. (1994) Aids 8, 575-581; Reisbach, et al. (1982) Anticancer Res. 2, 257-260; and Ellerby, et al. (1999) Nat. Med. 5, 1032-1038) and were cultured in 10% fetal bovine serum/Dulbecco's modified Eagle's medium, containing antibiotics.
(§1) To evaluate the effects of SGP on cell membranes multiple human cell lines of different origins were treated (see Table I, which presents a comparison of LC50 data for SGP, SGP-L, and SGP-E on a variety of cultured human cell types).
(§2) Cell viability was determined by morphology (see Ellerby, et al. (1999) Nat. Med. 5, 1032-1038; and Ellerby, et al. (1997) J. Neurosci. 17, 6165-6178). For viability assays, KS1767 cells were incubated with the concentrations of SGP, SGP-L, SGP-E, or control peptides indicated in the figures and in Table I. Briefly, at the given time points, cell culture medium was aspirated from adherent cells. Cells were then gently washed once with PBS at 37° C. A 20-fold dilution of the dye mixture (100 μg/ml acridine orange and 100 μg/ml ethidium bromide) in PBS was then gently pipetted on the cells and viewed on an inverted microscope (Nikon TE 300). […] Percent viability was calculated relative to untreated cells.

[3] = Cell viability LC50, cell line not given in Table I; type: cell-based; conditions: for CC50: cell line cell empty (row under KS 1767), read-out: LC50 at 30 min
Description: as §1, §2

[4] = Cell viability LC50, CADMEC cells; type: cell-based, human; conditions: human
Description: as §1, §2

[5] = Cell viability LC50, HUVEC cells; type: cell-based; conditions: human, HUVEC (Human Umbilical Cord Vascular Endothelial Cells)
Description: as §1, §2

[6] = Cell viability LC50, HPAEC cells; type: cell-based; conditions: human, HPAEC (Human Pulmonary Artery Endothelial Cells)
Description: as §1, §2

[7] = Cell viability LC50, 293 cells; type: cell-based; conditions: human, 293 cells (human kidney cells)
Description: as §1, §2

[8] = system: human MDA-MB-435-derived breast carcinoma xenografts; experiment: Anti-tumor activity, MDA-MB-435 breast carcinoma xenografts in nude mice; type: in vivo, nude/nude Balb/c mice; conditions: for tumor appearance: 4 weekly treatments at 40 μl/week, starting volume 100 mm^3
Description: (§3) MDA-MB-435-, KS1767-, PC-3-, and H358-derived human tumor xenografts were established in 2-month-old female or male (according to the tumor type), nude/nude Balb/c mice (Jackson Labs, Bar Harbor, Me.) by administering […] per mouse in a 200 μl volume of serum-free Dulbecco's modified Eagle's medium into the mammary fat pad or on the flank (see Ellerby, et al. (1999) Nat. Med. 5, 1032-1038). The mice were anesthetized with Avertin as described (see Ellerby, et al. (1999) supra.). SGP was administered directly into the center of the tumor mass at a concentration of 100 μM or 1 mM given slowly in 5 μl increments, for a total volume of 40 μl. Measurements of tumors were taken by caliper under anesthesia and used to calculate tumor volume (see Ellerby, et al. (1999) supra.). Animal experimentation was reviewed and approved by the Institutional Animal Care and Use Committee.
In the first set of experiments, tumors were allowed to form after injection of a breast carcinoma cell line (MDA-MD-435) and then treated with local injections of SGP. […] Starting tumor volumes ranged from about 100 mm^3 to large sizes of about 600 mm^3. Tumor-bearing mice were given four weekly treatments of PBS, or 100 μM or 1 mM SGP (40 μl/treatment given in 5 μl increments). After a 4-week period without treatment, the tumor volumes were measured at 8 weeks. The average tumor volume at the end of the experiment in the SGP-treated groups was […] than the average volume seen in the PBS-treated group (FIG. 3A). There was no difference between the average tumor volumes of the 2 SGP treatment groups. Mice treated with SGP remained tumor-free for up to 4 months after tumor implantation, before being euthanized for histological evaluation. These observations indicate that both primary tumor growth (FIG. 4) and metastases were inhibited. […] By successfully treating a large number of mice and testing the effects of SGP on several different tumor xenograft models (including carcinomas, sarcomas, and melanomas), the therapeutic properties of SGP were firmly established. […] It was also evaluated whether SGP produced adverse side effects such as necrosis when injected under normal skin.
MDA-MB-435-derived breast carcinoma and KS1767-derived Kaposi sarcoma xenografts and organs were removed, fixed in Bouin solution, embedded in paraffin for preparation of tissue sections, and stained with hematoxylin and eosin (see Ellerby, et al. (1999) supra.).

[9] = system: human PC3-derived prostate carcinoma xenografts; experiment: Anti-tumor activity, PC-3 prostate carcinoma xenografts in nude mice; type: in vivo, nude/nude Balb/c mice; conditions: PC-3 tumors, 10 weeks
Excerpt: (§4) Data are shown for human PC3-derived prostate carcinoma and H358 lung carcinoma. Tumor cells were implanted on the flank at the start of the experiments. Mice were divided in similar groups based on matched tumor volumes at the start of the experiment (open circles).
as §3

[10] = system: H358 lung carcinoma xenografts; experiment: Anti-tumor activity, H358 lung carcinoma xenografts in nude mice; type: in vivo, nude/nude Balb/c mice
Excerpt: as §4, §3

normal skin = experiment: Skin toxicity in nude mice; type: in vivo; conditions: 100 μM, injected sub-cutaneously or intradermally under normal skin
Description: 2-month-old female nude mice (Jackson Labs) were anesthetized with Avertin. 10 μl of 100 μM SGP or PBS was injected into the skin. The injected areas were monitored for 2 weeks.

[11] = cited from earlier work; for ability to disrupt synthetic membranes: Matsumoto et al. 2001
[12] = system: CADMEC = Cell Applications Dermal Microvessel Endothelial Cells; experiment: Cell viability LC50, CADMEC cells; type: cell-based, human; conditions: read-out: LC50 at 30 min
Description: as §1, §2

## COc1cccc2c1C(=O)c1c(O)c3c(c(O)c1C2=O)C[C@@](O)(C(=O)CO)C[C@@H]3O[C@H]1C[C@H](N)[C@H](O)[C@H](C)O1 [doxorubicin, reference compound]
KS1767 cells [1]; 20 μg/well, 24 h, in the presence of matrigel
  effect on KS1767 cell viability: decreased cell viability
KS1767 cells [1]
  effect on KS1767 cell layer: damaged the cell layer

## CCO [ethanol, reference compound]
KS1767 cells [1]; in the presence of polymeric fibronectin (sFN)
  effect on KS1767 cells: induced massive cell death
KS1767 cells [1]
  effect on KS1767 cell layer: damaged the cell layer

## Ac-AAAAAAWAAAAGPNGLYLKKKLLKKLLKLLGNPGLKLYKKLLKKLLLKLGNPGLLKLYKKLLKKLLKLL-OH [SGP, small globular protein]
KS1767 cells [2]; 3 μM, 24 h
  effect on KS1767 cells: classic morphological signs of apoptosis
KS1767 cells [2]; 10 μM, within 60 s
  effect on KS1767 cells: extremely rapid non-necrotic, non-apoptotic cell death
KS1767 cells [2]; 10 μM, within 60 min
  effect on KS1767 cells: necrosis
KS1767 cells [2]; below 5 μM, over 24-hour period, confirmed by caspase-3 activation assay
  effect on KS1767 cells: induction of apoptosis
KS1767 cells [2]; cultured cells, tumor derived and normal
  concentration affecting tumor derived cells as well as normal cells: ~3 µM
[3]; human
  CC50 at 30 min: 4 µM
[4]
  CC50 at 30 min: 5 µM
[5]
  CC50 at 30 min: 7 µM
[6]
  CC50 at 30 min: 5 µM
[7]
  CC50 at 30 min: 5 µM
KS1767 cells [1]; 1 mM, in the presence of matrigel
  effect on KS1767 cells: remain unaffected
KS1767 cells [1]; 1 mM, in the presence of polymeric fibronectin (sFN)
  effect on KS1767 cell viability: ineffective; also recorded: remain unaffected
KS1767 cells [1]; 1 mM, without matrigel
  effect on KS1767 cells: decreases cell viability
KS1767 cells [1]; fibronectin alone (not polymeric), control
  SGP activity in the presence of fibronectin alone: did not prevent SGP activity
[8]; 100 μM
  tumor appearance: flattened and virtually disappeared
[8]; 100 μM, harvested at 8 weeks after treatment initiation
  histopathology of tumor xenografts: widespread cell death; also recorded: extensive apoptosis
[8]; 1 mM
  tumor appearance: flattened and virtually disappeared
[8]; 8 weeks
  difference between average tumor volumes of 100 μM and 1 mM groups: no difference
[8]; SGP-treated mice
  histological analysis of the major organs: no overt pathology
[8]; before being euthanized for histological evaluation
  time mice remained tumor-free after tumor implantation: up to 4 months
[8]; four weekly intratumoral treatments, 100 μM or 1 mM, 40 μl, measured at 8 weeks
  tumor volume compared with PBS-treated controls: significantly smaller; also recorded: smaller than controls
[8]; mouse, in vivo
  primary tumor growth and metastases: inhibited
  surgical examination of the tumor sites: no sign of tumor cells
[9]
  tumor volume compared with PBS-treated tumors: smaller than control PBS-treated tumors
[10]; H358 tumors, 9 weeks
  tumor volume compared with PBS-treated tumors: smaller than control PBS-treated tumors
[10]; after 6 weekly treatments at 40 μl/week, FIG. 5C
  tumor appearance: have disappeared
Normal skin
  skin toxicity: relatively non-toxic to normal skin
[11]; Lee et al. 1997
  pore size (conductance) in synthetic bilayers: 14 pS

## DLSLARLATARLAI [negative control peptide, reference compound]
KS1767 cells [2]; 100 μM, 60 s
  effect on KS1767 cells: unaffected
KS1767 cells [2]; 100 μM, 24 h
  effect on KS1767 cells: unaffected
KS1767 cells [2]; 100 μM, after 60 min
  effect on KS1767 cells: unaffected

B1: SGP-L: SGP variant SEQ ID NO:4; central all alanine helix replaced by an all leucine helix; negative control (peptide)
chain: LLLLLLWLLLLGPNGLKLYKKLLKKLLKLLGNPGLKLYKKLLKKLLLKLGNPGLLKLYKKLLKKLLKLL
KS1767 cells [2]
  CC50: 60 µM
  toxicity to mammalian cultured cells compared with SGP: substantially less toxic
[3]
  CC50: 60 µM
[12]
  CC50: 60 µM
[11]
  ability to disrupt synthetic membranes: diminished

B2: SGP-E: SGP variant SEQ ID NO:3; lysines replaced by glutamic acids; negative control (peptide)
chain: AAAAAAWAAAAGNPGLELLKKLYKKLLELLGNPGLELLKKYLKKLLELLGNPGLLELLKKYLKKLLELL
KS1767 cells [2]
  CC50: 30 µM
  toxicity to mammalian cultured cells compared with SGP: substantially less toxic
[3]
  CC50: 30 µM
[12]
  CC50: 30 µM
[11]
  ability to disrupt synthetic membranes: diminished
